In PMC5218480 (PLoS ONE, 2017):

Test system: MV-4-11 cells
Test: Gene expression microarray analysis (Affymetrix PrimeView) and GSEA
Format: cell-based, human
Set-up: RFU PODN (11730768_x_at) / Fold change /veh PODN (11730768_x_at) / RFU LINC00158 (11744669_a_at) / Fold change /veh LINC00158 (11744669_a_at) / RFU DUSP10 (11751237_a_at) / Fold change /veh DUSP10 (11751237_a_at) / RFU ID3 (11757404_x_at) / Fold change /veh ID3 (11757404_x_at) / RFU PLEKHG5 (11737974_s_at) / Fold change /veh PLEKHG5 (11737974_s_at) / RFU LRRC4B (11730491_at) / Fold change /veh LRRC4B (11730491_at) / RFU GIMAP4 (11747438_a_at) / Fold change /veh GIMAP4 (11747438_a_at) / RFU KRT8 (11758183_x_at) / Fold change /veh KRT8 (11758183_x_at) / RFU CNN1 (11734310_a_at) / Fold change /veh CNN1 (11734310_a_at) / RFU VPS37D (11726825_at) / Fold change /veh VPS37D (11726825_at) / RFU C10orf10 (11716522_x_at) / Fold change /veh C10orf10 (11716522_x_at) / RFU KIR2DL2 /// KIR2DL4 /// KIR2DL5A /// KIR2DL5B /// KIR2DS1 /// KIR2DS2 /// KIR2DS3 /// KIR2DS4 /// KIR3DL3 /// KIR3DL3 /// KIR3DS1 (11738374_at) / Fold change /veh KIR2DL2 /// KIR2DL4 /// KIR2DL5A /// KIR2DL5B /// KIR2DS1 /// KIR2DS2 /// KIR2DS3 /// KIR2DS4 /// KIR3DL3 /// KIR3DL3 /// KIR3DS1 (11738374_at) / RFU C1QL1 (11718748_at) / Fold change /veh C1QL1 (11718748_at) / RFU TMPRSS4 (11747572_a_at) / Fold change /veh TMPRSS4 (11747572_a_at) / RFU HAMP (11756126_x_at) / Fold change /veh HAMP (11756126_x_at) / RFU RNFT2 (11725882_a_at) / Fold change /veh RNFT2 (11725882_a_at) / RFU NR4A2 (11747474_a_at) / Fold change /veh NR4A2 (11747474_a_at) / RFU ABCC12 (11746883_a_at) / Fold change /veh ABCC12 (11746883_a_at) / RFU TMEM136 (11760407_x_at) / Fold change /veh TMEM136 (11760407_x_at) / RFU CLDN22 /// WWC2 (11732394_at) / Fold change /veh CLDN22 /// WWC2 (11732394_at) / RFU HLA-DPB1 (11760878_x_at) / Fold change /veh HLA-DPB1 (11760878_x_at) / RFU SPINT1 (11716480_a_at) / Fold change /veh SPINT1 (11716480_a_at) / RFU GAP43 (11754022_s_at) / Fold change /veh GAP43 (11754022_s_at) / RFU A4GNT (11735810_at) / Fold change /veh A4GNT (11735810_at) / RFU PRB3 (11715151_x_at) / Fold change /veh PRB3 (11715151_x_at) / RFU TUBB4B (11761932_at) / Fold change /veh TUBB4B (11761932_at) / RFU CAPN14 (11732068_a_at) / Fold change /veh CAPN14 (11732068_a_at) / RFU TMCC2 (11721928_a_at) / Fold change /veh TMCC2 (11721928_a_at) / RFU IRGQ (11745062_a_at) / Fold change /veh IRGQ (11745062_a_at) / RFU FAM174B (11720279_a_at) / Fold change /veh FAM174B (11720279_a_at) / RFU TMPRSS4 (11748680_a_at) / Fold change /veh TMPRSS4 (11748680_a_at) / RFU FAM212B (11763350_a_at) / Fold change /veh FAM212B (11763350_a_at) / RFU PLEKHG5 (11743358_a_at) / Fold change /veh PLEKHG5 (11743358_a_at) / RFU ZSCAN30 (11745921_a_at) / Fold change /veh ZSCAN30 (11745921_a_at) / RFU CMKLR1 (11741424_a_at) / Fold change /veh CMKLR1 (11741424_a_at) / RFU LOC101060620 /// MAPK8IP1 (11723275_at) / Fold change /veh LOC101060620 /// MAPK8IP1 (11723275_at) / RFU SPTSSB (11747773_x_at) / Fold change /veh SPTSSB (11747773_x_at) / RFU PRSS12 (11739890_at) / Fold change /veh PRSS12 (11739890_at) / RFU BIN1 (11741810_x_at) / Fold change /veh BIN1 (11741810_x_at) / RFU WNT11 (11732464_a_at) / Fold change /veh WNT11 (11732464_a_at) / RFU C10orf10 (11716521_a_at) / Fold change /veh C10orf10 (11716521_a_at) / RFU C5orf56 (11738089_at) / Fold change /veh C5orf56 (11738089_at) / RFU CYB561 (11721691_x_at) / Fold change /veh CYB561 (11721691_x_at) / RFU ANKRD19P (11752326_a_at) / Fold change /veh ANKRD19P (11752326_a_at) / RFU OR2T12 /// OR2T33 /// OR2T8 (11738714_s_at) / Fold change /veh OR2T12 /// OR2T33 /// OR2T8 (11738714_s_at) / RFU VCAN (11748164_a_at) / Fold change /veh VCAN (11748164_a_at) / RFU JSRP1 (11732532_at) / Fold change /veh JSRP1 (11732532_at) / RFU KRTAP10-11 (11738290_x_at) / Fold change /veh KRTAP10-11 (11738290_x_at) / RFU MYO3A (11730013_a_at) / Fold change /veh MYO3A (11730013_a_at) / RFU EBF3 (11725865_a_at) / Fold change /veh EBF3 (11725865_a_at) / RFU CAMK2N1 (11719241_x_at) / Fold change /veh CAMK2N1 (11719241_x_at) / RFU C5orf56 (11738088_a_at) / Fold change /veh C5orf56 (11738088_a_at) / RFU OLFML3 (11715873_a_at) / Fold change /veh OLFML3 (11715873_a_at) / RFU LOC100653217 /// NTM (11731650_a_at) / Fold change /veh LOC100653217 /// NTM (11731650_a_at) / RFU MAPK11 (11762145_a_at) / Fold change /veh MAPK11 (11762145_a_at) / RFU FIZ1 (11724087_x_at) / Fold change /veh FIZ1 (11724087_x_at) / RFU OASL (11726364_x_at) / Fold change /veh OASL (11726364_x_at) / RFU SOX15 (11748057_x_at) / Fold change /veh SOX15 (11748057_x_at) / RFU CD79A (11719716_a_at) / Fold change /veh CD79A (11719716_a_at) / RFU HIST1H1D (11736915_at) / Fold change /veh HIST1H1D (11736915_at) / RFU CASKIN2 (11723855_a_at) / Fold change /veh CASKIN2 (11723855_a_at) / RFU LOC730098 (11760151_x_at) / Fold change /veh LOC730098 (11760151_x_at) / RFU OR4N2 (11742367_at) / Fold change /veh OR4N2 (11742367_at) / RFU PRRT2 (11749266_a_at) / Fold change /veh PRRT2 (11749266_a_at) / RFU SNX32 (11753110_a_at) / Fold change /veh SNX32 (11753110_a_at) / RFU CDHR5 (11726645_a_at) / Fold change /veh CDHR5 (11726645_a_at) / RFU RCAN1 (11760418_a_at) / Fold change /veh RCAN1 (11760418_a_at) / RFU FAM167A (11723789_a_at) / Fold change /veh FAM167A (11723789_a_at) / RFU FAM26E (11764081_at) / Fold change /veh FAM26E (11764081_at) / RFU ISYNA1 (11749810_s_at) / Fold change /veh ISYNA1 (11749810_s_at) / RFU ACY1 (11761880_at) / Fold change /veh ACY1 (11761880_at) / RFU 11764098_at / Fold change /veh 11764098_at / RFU SAMD14 (11745864_x_at) / Fold change /veh SAMD14 (11745864_x_at) / RFU NPB (11741838_a_at) / Fold change /veh NPB (11741838_a_at) / RFU TMPRSS6 (11731388_a_at) / Fold change /veh TMPRSS6 (11731388_a_at) / RFU KRTAP10-2 (11738614_at) / Fold change /veh KRTAP10-2 (11738614_at) / RFU ARHGAP8 /// PRR5-ARHGAP8 (11727945_x_at) / Fold change /veh ARHGAP8 /// PRR5-ARHGAP8 (11727945_x_at) / RFU KRTAP5-7 /// NADSYN1 (11734609_at) / Fold change /veh KRTAP5-7 /// NADSYN1 (11734609_at) / RFU RASL12 (11751679_a_at) / Fold change /veh RASL12 (11751679_a_at) / RFU CDKN2B (11736163_a_at) / Fold change /veh CDKN2B (11736163_a_at) / RFU PRF1 (11729649_at) / Fold change /veh PRF1 (11729649_at) / RFU, ZNF638 /// ZNF638-IT1 / Fold change vs veh, ZNF638 /// ZNF638-IT1 / RFU, PANK3 / Fold change vs veh, PANK3 / RFU, SH3YL1 / Fold change vs veh, SH3YL1 / RFU, ZEB2 / Fold change vs veh, ZEB2 / RFU, NRIP1 / Fold change vs veh, NRIP1 / RFU, PTTG1IP / Fold change vs veh, PTTG1IP / RFU, CAPN2 / Fold change vs veh, CAPN2 / RFU, MED14 / Fold change vs veh, MED14 / RFU, SNORA58 / Fold change vs veh, SNORA58 / RFU, C1orf63 / Fold change vs veh, C1orf63 / RFU, LRRFIP1 / Fold change vs veh, LRRFIP1 / RFU, NDUFAF7 / Fold change vs veh, NDUFAF7 / RFU, SLC12A2 / Fold change vs veh, SLC12A2 / RFU, IBTK / Fold change vs veh, IBTK / RFU, ESF1 / Fold change vs veh, ESF1 / Fold change vs veh, TMEM50B / RFU, TAOK1 / Fold change vs veh, TAOK1 / RFU, ACBD3 / Fold change vs veh, ACBD3 / RFU, TMA16 / Fold change vs veh, TMA16 / RFU, RWDD3 / Fold change vs veh, RWDD3 / RFU, BCAT1 / Fold change vs veh, BCAT1 / RFU, EDEM3 / Fold change vs veh, EDEM3 / RFU, TMEM33 / Fold change vs veh, TMEM33 / RFU, WDR75 / Fold change vs veh, WDR75 / RFU, AHCTF1 / Fold change vs veh, AHCTF1 / RFU, TFRC / Fold change vs veh, TFRC / RFU, ZDHHC17 / Fold change vs veh, ZDHHC17 / RFU, NOM1 / Fold change vs veh, NOM1 / RFU, ARL8B / Fold change vs veh, ARL8B / RFU, ZBTB11 / Fold change vs veh, ZBTB11 / RFU, TAMM41 / Fold change vs veh, TAMM41 / RFU, KIAA1704 /// LOC100996395 / Fold change vs veh, KIAA1704 /// LOC100996395 / RFU, ING1 / Fold change vs veh, ING1 / RFU, TRMT61B / Fold change vs veh, TRMT61B / RFU, FUBP3 / Fold change vs veh, FUBP3 / RFU, TP53 / Fold change vs veh, TP53 / RFU, TNKS2 / Fold change vs veh, TNKS2 / RFU, ZFP14 / Fold change vs veh, ZFP14 / RFU, ACTR2 / Fold change vs veh, ACTR2 / RFU, PPP3R1 / Fold change vs veh, PPP3R1 / RFU, PIK3R1 / Fold change vs veh, PIK3R1 / RFU, HNRNPA1 / Fold change vs veh, HNRNPA1 / RFU, RNF170 / Fold change vs veh, RNF170 / RFU, ZNF28 / Fold change vs veh, ZNF28 / RFU, RNGTT / Fold change vs veh, RNGTT / RFU, OGT / Fold change vs veh, OGT / RFU, BRD1 / Fold change vs veh, BRD1 / RFU, MARS / Fold change vs veh, MARS / RFU, ZNF655 / Fold change vs veh, ZNF655 / RFU, FAHD1 / Fold change vs veh, FAHD1 / RFU, BDP1 / Fold change vs veh, BDP1 / RFU, LRRCC1 / Fold change vs veh, LRRCC1 / RFU, ARID1A / Fold change vs veh, ARID1A / RFU, ZNF146 / Fold change vs veh, ZNF146 / RFU, ZNF330 / Fold change vs veh, ZNF330 / RFU, GPN3 / Fold change vs veh, GPN3 / RFU, C9orf123 / Fold change vs veh, C9orf123 / RFU, N4BP2L2 / Fold change vs veh, N4BP2L2 / RFU, ARFIP1 / Fold change vs veh, ARFIP1 / RFU, FAM179B / Fold change vs veh, FAM179B / RFU, BCL10 / Fold change vs veh, BCL10 / RFU, UHRF1BP1L / Fold change vs veh, UHRF1BP1L / RFU, BET1 / Fold change vs veh, BET1 / RFU, CNOT2 / Fold change vs veh, CNOT2 / RFU, ZNF268 / Fold change vs veh, ZNF268 / Fold change vs veh, ZNF507 / RFU, DGCR2 / Fold change vs veh, DGCR2 / RFU, WDSUB1 / Fold change vs veh, WDSUB1 / Fold change vs veh, HSP90B1 /// MIR3652 / RFU, ADSS / Fold change vs veh, ADSS / RFU, GK / Fold change vs veh, GK / RFU, ZNF148 / Fold change vs veh, ZNF148 / RFU, TAF9 / Fold change vs veh, TAF9 / RFU, SLC1A5 / Fold change vs veh, SLC1A5 / RFU, SLMO2 / Fold change vs veh, SLMO2 / RFU, ABCC4 / Fold change vs veh, ABCC4 / RFU, LOC101060439 /// RAP1B / Fold change vs veh, LOC101060439 /// RAP1B / RFU, RFX7 / Fold change vs veh, RFX7 / RFU, GTPBP10 / Fold change vs veh, GTPBP10 / RFU, CNEP1R1 / Fold change vs veh, CNEP1R1 / RFU, BIVM-ERCC5 /// ERCC5 / Fold change vs veh, BIVM-ERCC5 /// ERCC5 / RFU, ILF3 / Fold change vs veh, ILF3 / RFU 11762660_at / Fold change /veh 11762660_at / RFU VCAN (11757783_s_at) / Fold change /veh VCAN (11757783_s_at) / RFU DDX43 (11728927_at) / Fold change /veh DDX43 (11728927_at) / RFU KRT8 (11758188_x_at) / Fold change /veh KRT8 (11758188_x_at) / RFU NKD1 (11759106_at) / Fold change /veh NKD1 (11759106_at) / RFU SRD5A1 (11742802_a_at) / Fold change /veh SRD5A1 (11742802_a_at) / RFU TPSAB1 /// TPSB2 (11721975_s_at) / Fold change /veh TPSAB1 /// TPSB2 (11721975_s_at) / RFU GSTM3 (11746129_a_at) / Fold change /veh GSTM3 (11746129_a_at) / RFU IL23R (11737362_x_at) / Fold change /veh IL23R (11737362_x_at) / RFU TMEM51 (11727254_a_at) / Fold change /veh TMEM51 (11727254_a_at) / RFU PIWIL2 (11732686_x_at) / Fold change /veh PIWIL2 (11732686_x_at) / RFU ORM1 (11744905_x_at) / Fold change /veh ORM1 (11744905_x_at) / RFU CCDC152 (11743942_at) / Fold change /veh CCDC152 (11743942_at) / RFU ECM1 (11717891_a_at) / Fold change /veh ECM1 (11717891_a_at) / RFU IL23R (11748794_a_at) / Fold change /veh IL23R (11748794_a_at) / RFU TNFAIP8L3 (11732012_x_at) / Fold change /veh TNFAIP8L3 (11732012_x_at) / RFU MBOAT4 (11741988_at) / Fold change /veh MBOAT4 (11741988_at) / RFU 11764193_at / Fold change /veh 11764193_at / RFU TMEM53 (11763286_at) / Fold change /veh TMEM53 (11763286_at) / RFU MAGEB2 (11727129_at) / Fold change /veh MAGEB2 (11727129_at) / RFU TMEM200A (11744735_a_at) / Fold change /veh TMEM200A (11744735_a_at) / RFU CCDC152 (11751479_a_at) / Fold change /veh CCDC152 (11751479_a_at) / RFU FAM211A (11726209_a_at) / Fold change /veh FAM211A (11726209_a_at) / RFU RGS16 (11746705_a_at) / Fold change /veh RGS16 (11746705_a_at) / RFU VCAN (11755009_s_at) / Fold change /veh VCAN (11755009_s_at) / RFU RHOB (11743442_s_at) / Fold change /veh RHOB (11743442_s_at) / RFU RGS16 (11720943_a_at) / Fold change /veh RGS16 (11720943_a_at) / RFU RGS16 (11720944_at) / Fold change /veh RGS16 (11720944_at) / RFU, VPS4B / Fold change vs veh, VPS4B / RFU, CREB1 / Fold change vs veh, CREB1 / RFU, DNAJC13 / Fold change vs veh, DNAJC13 / RFU, GNAQ / Fold change vs veh, GNAQ / RFU, CDK5R1 / Fold change vs veh, CDK5R1 / RFU, ZRANB3 / Fold change vs veh, ZRANB3 / RFU, CUL4A / Fold change vs veh, CUL4A / RFU, CCNY / Fold change vs veh, CCNY / RFU, UFL1 / Fold change vs veh, UFL1 / RFU, COG3 / Fold change vs veh, COG3 / RFU, DIAPH2 / Fold change vs veh, DIAPH2 / RFU, SKA2 / Fold change vs veh, SKA2 / RFU, AFF3 / Fold change vs veh, AFF3 / RFU, LMF1 / Fold change vs veh, LMF1 / RFU, IPO11 / Fold change vs veh, IPO11 / RFU, DFFB / Fold change vs veh, DFFB / RFU, FOXP1 / Fold change vs veh, FOXP1 / RFU, CARD8 / Fold change vs veh, CARD8 / RFU, STRN3 / Fold change vs veh, STRN3 / RFU, ADK / Fold change vs veh, ADK / RFU, RASSF2 / Fold change vs veh, RASSF2 / RFU, WIPF1 / Fold change vs veh, WIPF1 / RFU, LARP1B / Fold change vs veh, LARP1B / RFU, RASA1 / Fold change vs veh, RASA1 / RFU, RB1 / Fold change vs veh, RB1 / RFU, PPFIA1 / Fold change vs veh, PPFIA1 / RFU, MAT2A / Fold change vs veh, MAT2A / RFU, CCT5 / Fold change vs veh, CCT5 / RFU, WDR92 / Fold change vs veh, WDR92 / RFU, CUX1 / Fold change vs veh, CUX1 / RFU, TTC7A / Fold change vs veh, TTC7A / RFU, TMEM135 / Fold change vs veh, TMEM135 / RFU, DEPTOR / Fold change vs veh, DEPTOR / RFU, CPM / Fold change vs veh, CPM / RFU, DNAJB6 / Fold change vs veh, DNAJB6 / RFU, CACNA2D3 / Fold change vs veh, CACNA2D3 / RFU, DTX4 / Fold change vs veh, DTX4 / RFU, TFCP2 / Fold change vs veh, TFCP2 / RFU, GMCL1 /// GMCL1P1 / Fold change vs veh, GMCL1 /// GMCL1P1 / RFU, AEBP2 / Fold change vs veh, AEBP2 / RFU, SNHG1 /// SNORD22 /// SNORD25 /// SNORD26 /// SNORD27 /// SNORD28 /// SNORD29 /// SNORD31 / Fold change vs veh, SNHG1 /// SNORD22 /// SNORD25 /// SNORD26 /// SNORD27 /// SNORD28 /// SNORD29 /// SNORD31 / Fold change (Aza/veh), C12orf56 (ProbeSet 11735607_a_at) / Fold change (ACY-1035/veh), C12orf56 (ProbeSet 11735607_a_at) / Fold change (Aza/veh), FGFR1OP (ProbeSet 11751329_s_at) / Fold change (ACY-1035/veh), FGFR1OP (ProbeSet 11751329_s_at) / Fold change (Aza/veh), VPS36 (ProbeSet 11739960_a_at) / Fold change (ACY-1035/veh), VPS36 (ProbeSet 11739960_a_at) / RFU SYPL1 (11715823_x_at) / Fold change /veh SYPL1 (11715823_x_at) / RFU IGFBP7 (11715501_s_at) / Fold change /veh IGFBP7 (11715501_s_at) / RFU REEP3 (11722064_at) / Fold change /veh REEP3 (11722064_at) / RFU IGLL1 (11728026_x_at) / Fold change /veh IGLL1 (11728026_x_at): dose or concentration left out as unconfirmed
Conditions: MV-4-11 cells, 48 hours

## Nc1ncn([C@@H]2O[C@H](CO)[C@@H](O)[C@H]2O)c(=O)n1 [azacitidine]
  Fold change /veh ABCC12 (11746883_a_at): 0.93
